Source: paper PMC10584170, “Machine learning-based phenotypic imaging to characterise the targetable biology of Plasmodium falciparum male gametocytes for the development of transmission-blocking antimalarials” (PLOS Pathogens, 2023)
Like-named read-outs stand apart in the source and are kept apart here.

What was measured:
[1] = test system: P. falciparum female gametocytes; assay: P. falciparum Dual Gamete Formation Assay (PfDGFA), female readout (Pfs25-positive female gametes); format: cell-based, Plasmodium falciparum NF54; conditions: for Selectivity ratio F: HepG2 Tox50 versus female IC50; for IC50: PfDGFA, 24 h incubation with gametocytes before induction, female gamete readout, read-out: Female IC50; for HitlevelF: number of replicates with >50% inhibition in the female readout
Summary of the method: (§1)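 Two sex-specific readouts come from one well: male exflagellation centres recorded by brightfield video right after activation, and female gametes scored by Cy3-anti-Pfs25 fluorescence after 24 h at 28°C.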

[2] = test system: HepG2 cells; assay: HepG2 cytotoxicity counter-screen; conditions: for Tox50: cytotoxic activity against HepG2 cells
[3] = test system: P. falciparum male gametocytes; assay: P. falciparum Dual Gamete Formation Assay (PfDGFA), male readout (exflagellation); format: cell-based, Plasmodium falciparum NF54; conditions: for Selectivity Ratio M: HepG2 Tox50 versus male IC50; for IC50: PfDGFA, 24 h incubation with gametocytes before induction, exflagellation readout, read-out: Male IC50; for HitlevelM: number of replicates with >50% inhibition in the male readout
Summary of the method: as §1

[4] = 2µM, 24h preincubation with gametocytes, average of replicates
[5] = 2µM, 24h preincubation with gametocytes, replicate R1
[6] = 2µM, 24h preincubation with gametocytes, replicate R3
[7] = 2µM, 24h preincubation with gametocytes, replicate R4
[8] = Plasmodium falciparum, 2µM, 24h preincubation with gametocytes, average of replicates, read-out: Average inhibition female (%)
[9] = Plasmodium falciparum, 2µM, 24h preincubation with gametocytes, replicate R1, read-out: % inhibition female (individual replicates) R1
[10] = Plasmodium falciparum, 2µM, 24h preincubation with gametocytes, replicate R2, read-out: % inhibition female (individual replicates) R2
[11] = Plasmodium falciparum, 2µM, 24h preincubation with gametocytes, replicate R3, read-out: % inhibition female (individual replicates) R3
[12] = Plasmodium falciparum, 2µM, 24h preincubation with gametocytes, replicate R4, read-out: % inhibition female (individual replicates) R4
[13] = Plasmodium falciparum, 2µM, 24h preincubation with gametocytes, average of replicates, read-out: Average inhibition male (%)
[14] = Plasmodium falciparum, 2µM, 24h preincubation with gametocytes, replicate R1, read-out: % inhibition male (individual replicates) R1
[15] = Plasmodium falciparum, 2µM, 24h preincubation with gametocytes, replicate R2, read-out: % inhibition male (individual replicates) R2
[16] = Plasmodium falciparum, 2µM, 24h preincubation with gametocytes, replicate R3, read-out: % inhibition male (individual replicates) R3
[17] = Plasmodium falciparum, 2µM, 24h preincubation with gametocytes, replicate R4, read-out: % inhibition male (individual replicates) R4
[18] = PfDGFA at 2µM, 24h preincubation with gametocytes, average of replicates
[19] = PfDGFA at 2µM, 24h preincubation with gametocytes, replicate R1
[20] = PfDGFA at 2µM, 24h preincubation with gametocytes, replicate R3
[21] = PfDGFA at 2µM, 24h preincubation with gametocytes, replicate R4

| Structure (SMILES) | IC50 ([1]; Plasmodium falciparum) [nM] | IC50 ([3]; Plasmodium falciparum) [nM] | Selectivity ratio F [1] | Tox50 [2] [µM] | Selectivity Ratio M [3] | inhibition at 2 µM [1, 8] [%] | inhibition at 2 µM [1, 9] [%] | inhibition at 2 µM [1, 10] [%] | inhibition at 2 µM [1, 11] [%] | inhibition at 2 µM [1, 12] [%] | inhibition at 2 µM [3, 13] [%] | inhibition at 2 µM [3, 14] [%] | inhibition at 2 µM [3, 15] [%] | inhibition at 2 µM [3, 16] [%] | inhibition at 2 µM [3, 17] [%] | other results |
| --- | --- | --- | --- | --- | --- | --- | --- | --- | --- | --- | --- | --- | --- | --- | --- | --- |
| CNC(=S)NN=C(C)c1ccccn1 [TCMDC-123475] |  |  | 0.49 | 0.13 | 0.29 |  |  |  |  |  |  |  |  |  |  | Average inhibition female (%) [1, 4]: 52.8%; % inhibition female (individual replicates) R1 [1, 5]: 38.7%; % inhibition female (individual replicates) R3 [1, 6]: 43.6%; % inhibition female (individual replicates) R4 [1, 7]: 50.7%; IC50 [1]: 270 nM; Average inhibition male (%) [3, 4]: 95.4%; % inhibition male (individual replicates) R1 [3, 5]: 96.5%; % inhibition male (individual replicates) R3 [3, 6]: 96.2%; % inhibition male (individual replicates) R4 [3, 7]: 91.6%; IC50 [3]: 450 nM |
| O=C1SC(=Cc2ccc(O)c(O)c2)C(=O)N1c1ccccc1 [TCMDC-123491] | 8430 | 1720 | 4.36 | 36.79 | 21.44 | 28.5 | 24.6 | 17.5 | 26.8 | 45.3 | 96.8 | 96 | 93.5 | 98.6 | 98.9 | Cytotox ratio Pf Female ([1]; Mean TOX HepG2 over DGFA IC50 FEM, GREEN = >10-fold, RED = <10-fold): 4.4; Mean TOX ([2]; mean of the HepG2 TOX50 values): 36.79 µM; Cytotox ratio Pf Male ([3]; Mean TOX HepG2 over DGFA IC50 MALE, GREEN = >10-fold, RED = <10-fold): 21.4 |
| COc1ccc(C[C@H](N)C(=O)N[C@H]2[C@@H](O)[C@H](n3cnc4c(N(C)C)ncnc43)O[C@@H]2CO)cc1 [TCMDC-123493] | 5140 | 910 | 0.66 | 3.39 | 3.72 |  |  |  |  |  |  |  |  |  |  | inhibition at 2 µM ([1]; Plasmodium falciparum, PfDGFA at 2µM, 24h preincubation with gametocytes, average of replicates, read-out: Average inhibition female (%)): 37.8%; inhibition at 2 µM ([1]; Plasmodium falciparum, PfDGFA at 2µM, 24h preincubation with gametocytes, replicate R1, read-out: % inhibition female (individual replicates) R1): 41.5%; inhibition at 2 µM ([1]; Plasmodium falciparum, PfDGFA at 2µM, 24h preincubation with gametocytes, replicate R2, read-out: % inhibition female (individual replicates) R2): 55%; inhibition at 2 µM ([1]; Plasmodium falciparum, PfDGFA at 2µM, 24h preincubation with gametocytes, replicate R3, read-out: % inhibition female (individual replicates) R3): 20.7%; inhibition at 2 µM ([1]; Plasmodium falciparum, PfDGFA at 2µM, 24h preincubation with gametocytes, replicate R4, read-out: % inhibition female (individual replicates) R4): 33.9%; HitlevelF ([1]; 2µM): 1; inhibition at 2 µM ([3]; Plasmodium falciparum, PfDGFA at 2µM, 24h preincubation with gametocytes, average of replicates, read-out: Average inhibition male (%)): 76.8%; inhibition at 2 µM ([3]; Plasmodium falciparum, PfDGFA at 2µM, 24h preincubation with gametocytes, replicate R1, read-out: % inhibition male (individual replicates) R1): 75.8%; inhibition at 2 µM ([3]; Plasmodium falciparum, PfDGFA at 2µM, 24h preincubation with gametocytes, replicate R2, read-out: % inhibition male (individual replicates) R2): 91.9%; inhibition at 2 µM ([3]; Plasmodium falciparum, PfDGFA at 2µM, 24h preincubation with gametocytes, replicate R3, read-out: % inhibition male (individual replicates) R3): 54%; inhibition at 2 µM ([3]; Plasmodium falciparum, PfDGFA at 2µM, 24h preincubation with gametocytes, replicate R4, read-out: % inhibition male (individual replicates) R4): 85.6%; HitlevelM ([3]; 2µM): 4 |
| CN(C)CCCn1c(N)c(-c2nc3ccccc3[nH]2)c2nc(C#N)c(C#N)nc21 [TCMDC-123729] | 1470 | 510 | 5.55 | 8.13 | 16 | 94.8 | 95.1 | 89.6 | 99.5 | 95.1 | 100 | 96.8 | 102 | 97.3 | 104 |  |
| COc1ccc(C[C@H](N)C(=O)N[C@H]2[C@@H](O)[C@H](n3cnc4c(N(C)C)ncnc43)O[C@@H]2CO)cc1.Cl [TCMDC-123927] |  |  | 0.5 | 2.01 | 4.87 |  |  |  |  |  |  |  |  |  |  | Average inhibition female (%) [1, 18]: 38.8%; % inhibition female (individual replicates) R1 [1, 19]: 27.9%; % inhibition female (individual replicates) R3 [1, 20]: 10.7%; % inhibition female (individual replicates) R4 [1, 21]: 72.0%; IC50 [1]: 4000 nM; HitlevelF ([1]; 2µM): 1; Average inhibition male (%) [3, 18]: 79.6%; % inhibition male (individual replicates) R1 [3, 19]: 87.8%; % inhibition male (individual replicates) R3 [3, 20]: 64.7%; % inhibition male (individual replicates) R4 [3, 21]: 82.2%; IC50 [3]: 410 nM; HitlevelM ([3]; 2µM): 4 |

Continued, in another order:

| IC50 ([1]; Plasmodium falciparum) [nM] | IC50 ([3]; Plasmodium falciparum) [nM] | Structure (SMILES) | Selectivity ratio F [1] | Tox50 [2] [µM] | Selectivity Ratio M [3] | inhibition at 2 µM [1, 8] [%] | inhibition at 2 µM [1, 9] [%] | inhibition at 2 µM [1, 10] [%] | inhibition at 2 µM [1, 11] [%] | inhibition at 2 µM [1, 12] [%] | inhibition at 2 µM [3, 13] [%] | inhibition at 2 µM [3, 14] [%] | inhibition at 2 µM [3, 15] [%] | inhibition at 2 µM [3, 16] [%] | inhibition at 2 µM [3, 17] [%] | other results |
| --- | --- | --- | --- | --- | --- | --- | --- | --- | --- | --- | --- | --- | --- | --- | --- | --- |
| 4890 | 910 | C=CCNc1cc(-c2ccccn2)nc(-c2ccccn2)n1 [TCMDC-123787] | 2.57 | 12.58 | 13.76 | 33.1 | 29.8 | 30 | 14.9 | 57.6 | 94.8 | 93.1 | 94.1 | 97.8 | 94.1 |  |
| 8840 | 590 | CN1CCN(c2ccc(Nc3c4ccccc4nc4ccccc34)cc2)CC1 [TCMDC-123912] | 3.01 | 26.65 | 45.1 |  |  |  |  |  |  |  |  |  |  | HitlevelF ([1]; 2µM, 24h preincubation): 0; inhibition at 2 µM ([1]; Plasmodium falciparum, 2µM, 24h preincubation with gametocytes prior to induction of gametogenesis, average of replicates, read-out: Average inhibition female (%)): 9.1%; inhibition at 2 µM ([1]; Plasmodium falciparum, 2µM, 24h preincubation with gametocytes prior to induction of gametogenesis, replicate R1, read-out: % inhibition female (individual replicates) R1): 23.8%; inhibition at 2 µM ([1]; Plasmodium falciparum, 2µM, 24h preincubation with gametocytes prior to induction of gametogenesis, replicate R2, read-out: % inhibition female (individual replicates) R2): 8%; inhibition at 2 µM ([1]; Plasmodium falciparum, 2µM, 24h preincubation with gametocytes prior to induction of gametogenesis, replicate R3, read-out: % inhibition female (individual replicates) R3): 0.7%; inhibition at 2 µM ([1]; Plasmodium falciparum, 2µM, 24h preincubation with gametocytes prior to induction of gametogenesis, replicate R4, read-out: % inhibition female (individual replicates) R4): 4.1%; HitlevelM ([3]; 2µM, 24h preincubation): 3; inhibition at 2 µM ([3]; Plasmodium falciparum, 2µM, 24h preincubation with gametocytes prior to induction of gametogenesis, average of replicates, read-out: Average inhibition male (%)): 62.8%; inhibition at 2 µM ([3]; Plasmodium falciparum, 2µM, 24h preincubation with gametocytes prior to induction of gametogenesis, replicate R1, read-out: % inhibition male (individual replicates) R1): 83%; inhibition at 2 µM ([3]; Plasmodium falciparum, 2µM, 24h preincubation with gametocytes prior to induction of gametogenesis, replicate R2, read-out: % inhibition male (individual replicates) R2): 83.6%; inhibition at 2 µM ([3]; Plasmodium falciparum, 2µM, 24h preincubation with gametocytes prior to induction of gametogenesis, replicate R3, read-out: % inhibition male (individual replicates) R3): 12.9%; inhibition at 2 µM ([3]; Plasmodium falciparum, 2µM, 24h preincubation with gametocytes prior to induction of gametogenesis, replicate R4, read-out: % inhibition male (individual replicates) R4): 71.6% |
